In data set [1] the test system is Streptococcus pyogenes. The data set is described as follows: In vitro antibacterial activity test (MIC). The class given is cell-based. As to conditions: read-out: minimum inhibitory concentration (MIC). On the procedure:
(§1) In vitro antibacterial activity test of the cephalosporin compounds disclosed herein using the common methods known in the art were conducted.

Data set [2] has as its system Viridans streptococcus. The data set is described as follows: In vitro antibacterial activity test (MIC). As to conditions: read-out: minimum inhibitory concentration (MIC). The format is cell-based. On the procedure: as §1
The subject of data set [3] is Staphylococcus aureus. Kind of data set: In vitro antibacterial activity test (MIC). The format is cell-based. The following applies: read-out: minimum inhibitory concentration (MIC). On the procedure:
as §1

The subject of data set [4] is Salmonella. The data set is described as follows: In vitro antibacterial activity test (MIC). The format is cell-based. As to conditions: read-out: minimum inhibitory concentration (MIC). How it is done: as §1
The subject of data set [5] is Streptococcus hemolyticus group A. Kind of data set: In vitro antibacterial activity test (MIC). The format is cell-based. As to conditions: Streptococcus pyogenes, read-out: minimum inhibitory concentration (MIC). On the procedure: as §1
In data set [6] the test system is Enterococcus. The data set is described as follows: In vitro antibacterial activity test (MIC). The format is cell-based. The following applies: read-out: minimum inhibitory concentration (MIC). How it is done: as §1
In data set [7] the test system is Hemophilus influenzae. The data set is described as follows: In vitro antibacterial activity test (MIC). The following applies: Haemophilus influenzae, read-out: minimum inhibitory concentration (MIC). The class given is cell-based. On the procedure:
as §1

Data set [8] concerns Staphylococcus epidermidis. Kind of data set: In vitro antibacterial activity test (MIC). The class given is cell-based. The following applies: read-out: minimum inhibitory concentration (MIC). On the procedure: as §1
A short description of data set [9]: Pharmacokinetic comparative experiment, intravenous injection, plasma by HPLC. The class given is in vivo, Beagle dogs. On the procedure:
The resulting BYS02 obtained from the Examples 6 and 7 as shown above was used to compare with cefathiamidine in the following pharmacokinetic study.
Commercially available cefathiamidine was used as the comparison in the pharmacokinetic study. Using the cross-over controlled trial experimental design, 6 healthy Beagle dogs were divided into two groups: one group of dogs were intravenously injected with 50 mg/kg.bw of the BYS02 and the other group of dogs were injected with 50 mg/kg.bw of cefathiamidine. Blood samples were taken every 12 hours. The drug plasma concentrations were analyzed using HPLC. The drug plasma concentration over the time data were analyzed using MCPKP program.
Six Beagle dogs were provided by Guangzhou Pharmaceutical Research Institute. They were healthy, male, one-year old, and each weighed 8.0±0.1 kg. The dogs were kept in single-dog cages and fed with water and food according to the standards for laboratory animals. One week before the tests, the dogs were examined for hearts, livers, and kidneys, and they were found normal.
BYS02 was prepared according to Example 6 with a purity of 90%. Cefathiamidine was purchased from the market. Heparin sodium, sodium hydrogen phosphate, citric acid, methanol, ethyl acetate and other agents used were analytical-pure. Propionitrile used was chromatographic-pure. Water is pure. High Performance Liquid Chromatography (HPLC) and high-speed refrigerated centrifuges were used in the tests.
Sixteen hours before and 4 hours after the administration, the Beagle dogs were not allowed to eat food but allowed to drink water freely. After intravenously injection with 50 mg/kg.bw of the BYS02 and cefathiamidine, respectively, the two groups of dogs were taken 3 ml of blood samples intravenously at 0, 0.083, 0.17, 0.25, 0.5, 1, 1.5, 2, 3, 4, 6, 9, and 12 hours. The dogs were administrated every other week and blood samples were collected according to the above schedule. The blood samples were added to centrifuge tubes, mixed with heparin, centrifuged at 4000 rpm for 10 minutes, and the serum samples were stored in a refrigerator at −20° C. until they were used.
Hypersil ODS2, C18 column (4.6 mm×150 mm, 5 μm); mobile phase: propionitrile/phosphate buffer (11/89 volume ratio); wavelength: 254 nm; flow rate: 1.0 ml/min; room temperature; sample size: 20 μl.
Preparation of phosphate buffer (pH 7.0): 2.76 g of sodium hydrogen phosphate, 1.29 g of citric acid and 1000 ml of water were mixed well and filtered.
Drug plasma concentration over the time data were analyzed using MCPKP program to calculate the pharmacokinetic parameters. The average values and standard deviations were also calculated.

For data set [10], the system named is Streptococcus pneumoniae. Kind of data set: In vitro antibacterial activity test (MIC). The following applies: read-out: minimum inhibitory concentration (MIC). The format is cell-based. On the procedure:
as §1

The test system of data set [11] is Pseudomonas aeruginosa. Kind of data set: In vitro antibacterial activity test (MIC). The class given is cell-based. The following applies: read-out: minimum inhibitory concentration (MIC). How it is done: as §1
In data set [12] the test system is SPF grade mice. The data set is described as follows: Acute toxicity test by intravenous injection. The format is in vivo. The text has this:
A commonly-used acute toxicity test method was used with SPF grade mice by intravenous injection.

Data set [13] can be described thus: Water solubility of the product. The format is physicochemical. The following applies: product of Example 6. On the procedure: 200 ml of methylene dichloride and 2.0 g of the intermediate prepared according to Example 1 were added to a three-neck flask. 16 ml of triethylamine was added dropwise to the flask to dissolve the solid. 0.6 g of N,N′-diisopropylthiourea was added to the reaction mixture. The mixture was refluxed until the reaction was complete. A solid product appeared in the reaction mixture. The temperature was lowered and the crystallization was carried out for an hour. The solid was filtered and dried under vacuum to yield 1.5 g of the product. It has a pH value of 5.4 and cloudiness of lower than 1 degree (1 g/10 ml water). The product is water soluble.

Where [14] appears, read: single intravenous administration.
Where [15] appears, read: Beagle dogs, intravenous injection, 50 mg/kg.bw.

≈ marks a conversion by molar mass, not a printed value. Like-named read-outs stand apart in the source and are kept apart here.

For `Cc1nc(SCC2=C(C(=O)O)N3C(=O)C(NC(=O)CSC(=NC(C)C)NC(C)C)C3SC2)sc1CC(=O)O` (stereo not drawn) [Compound V, 3-[[[5-(carboxymethyl)-4-methyl-2-thiazolyl]thio]methyl]-7-[[[[[(1-methylethyl)amino][(1-methylethyl)imino]methyl]thio]acetyl]amino]-8-oxo-5-thia-1-aza-bicyclo[4.2.0]oct-2-ene-2-carboxylic acid], the MIC in data set [1] is 0.0312 to 0.5 µg/mL (≈ 0.0518 to 0.831 µM); in data set [2] it was 0.125 to 4 µg/mL (≈ 0.208 to 6.65 µM); in data set [3], 0.25 to 2 µg/mL (≈ 0.415 to 3.32 µM); in data set [4], 2 to 8 µg/mL (≈ 3.32 to 13.3 µM); in data set [5], 0.125 to 1 µg/mL (≈ 0.208 to 1.66 µM); in data set [6], 2 to 8 µg/mL (≈ 3.32 to 13.3 µM). For the same compound, in data set [7], the MIC is more than 256 µg/mL.

`CO/N=C(\C(=O)N[C@@H]1C(=O)N2C(C(=O)O)=C(CSc3nc(=O)c(=O)[nH]n3C)CS[C@H]12)c1csc(N)n1` [Ceftriaxone, ceftriaxone, reference compound]: the MIC in [3] is 32 to 64 µg/mL (≈ 57.7 to 115 µM); in [4] it was 0.125 µg/mL (≈ 0.225 µM); in data set [6], more than 512 µg/mL; in [8], 2 to 8 µg/mL (≈ 3.61 to 14.4 µM).

As for `CC(=O)OCC1=C(C(=O)O)N2C(=O)[C@@H](NC(=O)CSC(=NC(C)C)NC(C)C)[C@H]2SC1` [cefathiamidine, reference compound], in data set [9] (dog, in vivo, iv, 50 mg/kg), the AUC worked out at 42.25 ± 1.02 µg·h/mL, the ClB was 19.7 ± 0.5 mL/min/kg, the Co was 90.84 ± 29.71 µg/mL and the V1 is 0.59 ± 0.20 L/kg. In data set [9] (dog, in vivo, iv, 50 mg/kg), this compound displayed a VB of 1.11 ± 0.07 L/kg, a t1/2α of 12.6 ± 8.4 min and a t1/2β of 39 ± 1.8 min.

Consider `CC(C)N=C(NC(C)C)SCC(=O)NC1C(=O)N2C(C(=O)O)=C(CSc3nc(=O)c(=O)[nH]n3C)CSC12` (stereo not drawn) [Compound II, 3-((1,2,5,6-tetrahydro-2-methyl-5,6-dioxo-1,2,4-triazine-3-ylthio)methyl)-7-[[[[[(1-methylethyl)amino][(1-methylethyl)imino]methyl]thio]acetyl]amino]-8-oxo-5-thia-1-aza-bicyclo[4.2.0]oct-2-ene-2-carboxylic acid], for which the MIC in data set [3] was 1 to 4 µg/mL (≈ 1.75 to 7 µM). The MIC in data set [6] was 4 to 8 µg/mL (≈ 7 to 14 µM). The MIC in data set [10] fell in the range of 0.125 to 0.5 µg/mL (≈ 0.219 to 0.875 µM). Also, the MIC in [8] is 0.0312 to 2 µg/mL (≈ 0.0546 to 3.5 µM). Moreover, in [7], the MIC is 8 to 16 µg/mL (≈ 14 to 28 µM). Besides, the MIC in data set [11] was more than 512 µg/mL. In addition, in data set [12] (setting [14]), the LD50 is reported as 672 mg/kg.bw and the “LD50 95% confidence limit” value is 650-700 mg/kg.bw. Also, in [12] (single intravenous injection of 465 mg/kg.bw), the mortality entry was “No death”. In addition, the mortality result in data set [12] (single intravenous injection of 930 mg/kg.bw or more) was “the animals died after 10 seconds of struggling”. Also, the solubility in water entry in [13] was “water soluble”. In data set [9] (setting [15]), this compound came in with a ClB of 7.83 ± 1.5 mL/min/kg, a Co of 208.97 ± 61.16 µg/mL, a V1 of 0.25 ± 0.07 L/kg and a VB of 1.61 ± 0.30 L/kg. In data set [9] (setting [15]), this compound displayed a t1/2α of 37.8 ± 7.2 min and a t1/2β of 131 ± 2.4 min. For the same compound, the AUC in data set [9] (male, dog, in vivo, Beagle dogs, intravenous injection, 50 mg/kg.bw, read-out: AUC) was determined as 108 ± 18.2 µg·h/mL.

The AUC is the area under the concentration-time curve, a measure of exposure.

These data come from patent publication US7700581B2, “Cephalosporin compounds comprising a C3 thio-methyl moiety substituted with N-containing heterocyclic group, and a C7 thiourea acetamido group, their preparations and uses thereof” (Guangzhou Baiyunshan Pharmaceutical Co., Ltd., priority 2007, dated 2010).
